Assay results published in patent US20220370440A1 (Lead Discovery Center GmbH, priority 2018, published 2022).

What was measured:
A431 = A431 CellTiter-Glo; format: cell-based; settings: Homo sapiens, A-431; 72 h compound incubation; read-out: A431 CTG IC50
Procedure, shortened: (§1)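 72 h compound exposure after 24 h attachment, 37° C./5% CO2; CellTiter-Glo ATP luminescence read-out; IC50 by dose-response fit; DMSO vehicle and 10 μM Staurosporine as controls; plates accepted only if Z′ ≥0.5.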

EGFR wt = EGFR wt (Homo sapiens, UniProt P00533); assay: EGFR wt Lance assay; format: biochemical
Description: (§2) Inhibition is indicated as […] [nM] (“−”=not measured). Compounds having an activity designated as “A” provided an IC50≤100 nM; compounds having an activity designated as “B” provided an 100 nM<IC50≤500 nM; compounds having an activity designated as “C” provided an 500 nM<IC50≤1000 nM; compounds having an activity designated as “D” provided an 1000 nM<IC50≤100000 nM; and compounds having an activity designated as “E” provided an IC50>10000 nM.

H1975 = H1975 CellTiter-Glo; format: cell-based; settings: Homo sapiens, NCI-H1975; 72 h compound incubation; read-out: H1975 CTG IC50
Procedure, shortened: as §1

[1] = target: EGFR Exon 20 INSNPH Ba/F3 (Homo sapiens, UniProt P00533, DUP771-773, cells depend on it); assay: EGFR Exon 20 INSNPH Ba/F3 CellTiter-Glo; format: cell-based; settings: CellTiter-Glo, 72 h, read-out: EGFR Exon 20 INSNPH Ba/F3 CTG IC50
Procedure, shortened: (§3)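 ATP-based luminescence (CellTiter-Glo) after 72 h compound exposure gives viability; IC50 from dose-response fit. Cells seeded 24 h ahead at 37 °C, 5% CO2. Controls: DMSO vehicle and 10 μM staurosporine; runs kept only if Z′ ≥0.5.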

[2] = target: Her2 Exon 20 INSYVMA Ba/F3 (Homo sapiens, UniProt P04626, DUP772-775, cells depend on it); assay: Her2 Exon 20 INSYVMA Ba/F3 CellTiter-Glo; format: cell-based; settings: CellTiter-Glo, 72 h, read-out: Her2 Exon 20 INSYVMA Ba/F3 CTG IC50
Procedure, shortened: as §3

[3] = Metabolic stability in mouse liver microsomes without cofactor NADPH; format: in vitro ADME; settings: 3 μM test compound, mouse liver microsomes, without NADPH, 50 min, 37° C., LC-MS/MS
Procedure, shortened: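 Cofactor-free incubation: no NADPH added to mouse liver microsomes, with compound at 3 μM and 37° C. Remaining parent was quantified by LC-MS/MS at time points up to 50 minutes to track depletion.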

EGFR T790ML858R = EGFR T790ML858R (Homo sapiens, UniProt P00533, L858R/T790M); assay: EGFR T790ML858R Lance assay; format: biochemical
Description: as §2

HER2 INS YVMA = target: T1, HER2 INS YVMA (Homo sapiens, UniProt P04626, INS775YVMA); assay: Lance Kinase Activity Assay, HER2 INS YVMA (Her2 Exon 20 INSYVMA Lance); format: biochemical; settings: biochemical Lance assay
T1 construct: purchased DPF
Procedure, shortened: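 IC50 was fitted to sigmoidal curves of TR-FRET signal (665 and 615 nm emission after 340 nm excitation) from an Eu anti-phospho antibody binding the phosphorylated ULight peptide. The ATP-started reaction ran 1 h at RT and was then quenched with 10 mM EDTA plus antibody for a further 1 h. Compounds were tested as 8-point, 3-fold dilutions.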

EGFR T790ML858R, sequence (P00533 25-1210 T790M/L858R): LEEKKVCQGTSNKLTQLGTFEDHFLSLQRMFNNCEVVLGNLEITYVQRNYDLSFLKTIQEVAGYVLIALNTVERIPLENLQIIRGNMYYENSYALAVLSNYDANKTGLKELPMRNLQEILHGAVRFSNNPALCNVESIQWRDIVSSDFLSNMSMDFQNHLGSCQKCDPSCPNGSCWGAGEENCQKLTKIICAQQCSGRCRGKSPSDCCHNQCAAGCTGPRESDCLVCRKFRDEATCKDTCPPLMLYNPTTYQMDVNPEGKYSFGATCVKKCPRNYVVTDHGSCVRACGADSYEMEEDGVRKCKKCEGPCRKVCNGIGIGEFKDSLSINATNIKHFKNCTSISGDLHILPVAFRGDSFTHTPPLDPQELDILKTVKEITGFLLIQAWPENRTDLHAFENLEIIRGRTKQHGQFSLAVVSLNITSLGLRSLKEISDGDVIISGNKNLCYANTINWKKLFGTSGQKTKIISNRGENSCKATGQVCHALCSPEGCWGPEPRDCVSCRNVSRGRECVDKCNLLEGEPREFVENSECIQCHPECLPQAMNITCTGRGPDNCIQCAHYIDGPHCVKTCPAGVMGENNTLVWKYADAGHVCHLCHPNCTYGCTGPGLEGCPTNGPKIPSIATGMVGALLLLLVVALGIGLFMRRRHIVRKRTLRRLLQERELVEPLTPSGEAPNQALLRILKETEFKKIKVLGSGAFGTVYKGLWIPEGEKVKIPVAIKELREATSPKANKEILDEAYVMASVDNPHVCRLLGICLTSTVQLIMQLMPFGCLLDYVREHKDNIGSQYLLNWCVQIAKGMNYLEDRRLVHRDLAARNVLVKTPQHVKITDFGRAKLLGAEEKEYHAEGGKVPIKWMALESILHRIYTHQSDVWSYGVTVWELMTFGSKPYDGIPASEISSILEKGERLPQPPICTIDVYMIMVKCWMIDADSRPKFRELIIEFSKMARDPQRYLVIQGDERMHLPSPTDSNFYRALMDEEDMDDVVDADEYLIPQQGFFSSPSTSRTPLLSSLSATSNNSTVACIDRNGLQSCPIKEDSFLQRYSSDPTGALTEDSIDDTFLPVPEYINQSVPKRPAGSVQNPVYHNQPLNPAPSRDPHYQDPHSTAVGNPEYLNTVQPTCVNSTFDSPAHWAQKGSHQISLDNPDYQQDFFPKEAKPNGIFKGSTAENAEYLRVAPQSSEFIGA
Her2 Exon 20 INSYVMA Ba/F3, sequence (P04626 with tags, fused parts or gaps DUP772-775): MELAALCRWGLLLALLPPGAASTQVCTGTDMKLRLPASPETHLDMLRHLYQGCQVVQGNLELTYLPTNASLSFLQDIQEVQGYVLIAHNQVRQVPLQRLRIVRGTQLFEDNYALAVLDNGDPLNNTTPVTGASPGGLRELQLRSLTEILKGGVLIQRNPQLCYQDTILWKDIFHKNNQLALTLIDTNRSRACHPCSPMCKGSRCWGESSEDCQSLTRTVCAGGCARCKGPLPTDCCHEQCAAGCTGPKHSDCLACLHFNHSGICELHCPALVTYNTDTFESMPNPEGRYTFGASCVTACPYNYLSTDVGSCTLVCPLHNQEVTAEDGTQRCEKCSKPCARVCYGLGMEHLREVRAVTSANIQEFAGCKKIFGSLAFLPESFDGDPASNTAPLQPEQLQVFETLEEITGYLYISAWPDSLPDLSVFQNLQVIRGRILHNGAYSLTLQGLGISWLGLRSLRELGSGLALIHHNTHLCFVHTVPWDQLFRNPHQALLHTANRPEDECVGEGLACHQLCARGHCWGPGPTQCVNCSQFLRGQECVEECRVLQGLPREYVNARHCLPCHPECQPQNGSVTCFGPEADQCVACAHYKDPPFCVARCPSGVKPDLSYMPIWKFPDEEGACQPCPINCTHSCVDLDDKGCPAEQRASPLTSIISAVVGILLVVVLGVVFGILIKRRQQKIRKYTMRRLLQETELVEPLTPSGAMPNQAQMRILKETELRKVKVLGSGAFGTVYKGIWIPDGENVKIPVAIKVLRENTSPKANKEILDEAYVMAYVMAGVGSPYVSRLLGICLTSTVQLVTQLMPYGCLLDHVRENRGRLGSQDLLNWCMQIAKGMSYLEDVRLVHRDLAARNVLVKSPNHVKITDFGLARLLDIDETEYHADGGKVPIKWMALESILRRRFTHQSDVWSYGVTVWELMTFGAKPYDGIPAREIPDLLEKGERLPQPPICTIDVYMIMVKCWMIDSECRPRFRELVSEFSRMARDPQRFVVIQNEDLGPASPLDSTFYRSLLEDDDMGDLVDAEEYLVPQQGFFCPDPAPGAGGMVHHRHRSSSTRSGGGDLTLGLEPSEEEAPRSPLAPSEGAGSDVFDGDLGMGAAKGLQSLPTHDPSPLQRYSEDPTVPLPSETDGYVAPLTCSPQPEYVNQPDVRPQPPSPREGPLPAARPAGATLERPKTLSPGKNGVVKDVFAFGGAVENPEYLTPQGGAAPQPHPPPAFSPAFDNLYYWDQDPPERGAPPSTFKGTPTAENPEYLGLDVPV
T1 sequence (P04626 with tags, fused parts or gaps INS775YVMA): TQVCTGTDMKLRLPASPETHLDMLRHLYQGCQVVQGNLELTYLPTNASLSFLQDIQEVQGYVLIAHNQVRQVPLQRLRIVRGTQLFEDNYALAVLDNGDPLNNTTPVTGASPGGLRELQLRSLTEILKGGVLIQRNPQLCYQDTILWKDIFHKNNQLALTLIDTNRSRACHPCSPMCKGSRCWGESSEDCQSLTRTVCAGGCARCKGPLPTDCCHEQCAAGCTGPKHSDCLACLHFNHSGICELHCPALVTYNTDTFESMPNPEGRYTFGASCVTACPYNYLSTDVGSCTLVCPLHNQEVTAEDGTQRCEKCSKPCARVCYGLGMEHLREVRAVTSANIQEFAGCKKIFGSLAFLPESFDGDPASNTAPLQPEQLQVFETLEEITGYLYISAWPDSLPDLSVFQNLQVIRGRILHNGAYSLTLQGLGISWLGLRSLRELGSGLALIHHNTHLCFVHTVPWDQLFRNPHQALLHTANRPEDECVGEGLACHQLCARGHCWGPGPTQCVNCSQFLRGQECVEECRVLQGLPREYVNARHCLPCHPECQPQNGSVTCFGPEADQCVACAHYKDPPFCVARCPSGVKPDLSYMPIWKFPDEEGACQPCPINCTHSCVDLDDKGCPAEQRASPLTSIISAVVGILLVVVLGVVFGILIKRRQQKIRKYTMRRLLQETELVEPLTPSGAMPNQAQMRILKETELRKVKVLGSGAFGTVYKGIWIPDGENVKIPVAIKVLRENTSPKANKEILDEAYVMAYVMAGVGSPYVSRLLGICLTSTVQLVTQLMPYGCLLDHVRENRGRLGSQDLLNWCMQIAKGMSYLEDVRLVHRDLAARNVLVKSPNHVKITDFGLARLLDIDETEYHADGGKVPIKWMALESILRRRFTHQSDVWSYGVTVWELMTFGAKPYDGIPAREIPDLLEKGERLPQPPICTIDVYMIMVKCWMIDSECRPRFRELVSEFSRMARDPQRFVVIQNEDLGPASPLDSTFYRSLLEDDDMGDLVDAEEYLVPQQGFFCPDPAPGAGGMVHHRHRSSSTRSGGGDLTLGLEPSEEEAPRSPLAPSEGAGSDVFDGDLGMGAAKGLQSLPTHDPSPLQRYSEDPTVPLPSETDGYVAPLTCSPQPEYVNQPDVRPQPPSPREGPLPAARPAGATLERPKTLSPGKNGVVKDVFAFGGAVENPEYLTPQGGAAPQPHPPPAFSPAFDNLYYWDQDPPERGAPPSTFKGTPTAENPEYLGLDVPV
EGFR Exon 20 INSNPH Ba/F3, sequence (P00533 with tags, fused parts or gaps DUP771-773): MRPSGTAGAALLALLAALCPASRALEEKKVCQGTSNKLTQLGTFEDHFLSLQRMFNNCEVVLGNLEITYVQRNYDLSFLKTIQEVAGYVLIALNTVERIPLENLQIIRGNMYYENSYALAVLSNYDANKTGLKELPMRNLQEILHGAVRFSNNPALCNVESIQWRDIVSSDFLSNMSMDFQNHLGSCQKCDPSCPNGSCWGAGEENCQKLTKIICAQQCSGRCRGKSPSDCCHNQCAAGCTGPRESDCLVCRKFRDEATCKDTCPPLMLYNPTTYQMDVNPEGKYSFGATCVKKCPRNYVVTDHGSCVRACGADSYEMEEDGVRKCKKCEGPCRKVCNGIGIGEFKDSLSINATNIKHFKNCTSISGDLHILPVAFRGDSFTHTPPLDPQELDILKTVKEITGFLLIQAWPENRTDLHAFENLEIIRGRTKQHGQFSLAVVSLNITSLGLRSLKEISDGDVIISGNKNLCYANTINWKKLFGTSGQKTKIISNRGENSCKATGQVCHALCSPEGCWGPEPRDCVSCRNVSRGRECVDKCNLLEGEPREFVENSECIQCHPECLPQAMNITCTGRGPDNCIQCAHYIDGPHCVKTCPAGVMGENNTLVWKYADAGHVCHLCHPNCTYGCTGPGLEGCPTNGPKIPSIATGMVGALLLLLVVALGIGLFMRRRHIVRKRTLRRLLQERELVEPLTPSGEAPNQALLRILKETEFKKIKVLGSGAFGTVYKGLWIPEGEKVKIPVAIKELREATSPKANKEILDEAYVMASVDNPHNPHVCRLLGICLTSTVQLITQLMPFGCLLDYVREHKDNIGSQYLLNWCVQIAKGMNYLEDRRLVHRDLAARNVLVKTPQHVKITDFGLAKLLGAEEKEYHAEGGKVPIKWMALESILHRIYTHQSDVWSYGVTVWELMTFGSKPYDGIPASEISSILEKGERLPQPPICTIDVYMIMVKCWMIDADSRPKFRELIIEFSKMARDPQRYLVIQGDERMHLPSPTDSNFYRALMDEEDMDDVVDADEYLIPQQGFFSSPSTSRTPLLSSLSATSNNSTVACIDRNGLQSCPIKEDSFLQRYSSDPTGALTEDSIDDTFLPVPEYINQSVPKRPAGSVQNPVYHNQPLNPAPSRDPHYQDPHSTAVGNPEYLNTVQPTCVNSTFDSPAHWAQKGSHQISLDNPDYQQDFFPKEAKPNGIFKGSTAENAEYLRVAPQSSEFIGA

IC50 (A431) [nM]	IC50 (EGFR wt) [nM]	IC50 (H1975) [nM]	GI50 [1] [nM]	GI50 [2] [nM]	Stability in presence of mouse liver microsomes without cofactor NADPH [% remaining after 50 min] [3] [% remaining after 50 min]	IC50 (EGFR T790ML858R) [nM]	IC50 (HER2 INS YVMA) [nM]	Compound
> 10000	≤ 100	> 10000	> 10000	> 10000	92	≤ 100	≤ 100	C=CC(=O)Nc1cc(-c2c(-c3ccc(N4CCN(C)CC4)cc3)[nH]c3ncc(C(=O)O)cc23)ccc1C [Example 116, 3-(3-acrylamido-4-methylphenyl)-2-(4-(4-methylpiperazin-1-yl)phenyl)-1H-pyrrolo[2,3-b]pyridine-5-carboxylic acid 2,2,2-trifluoroacetate]
1000 to 100000	≤ 100	100 to 500	1000 to 10000	500 to 1000	>99	≤ 100	≤ 100	C=CC(=O)N1CCc2ccc(-c3c(-c4ccc(CN5CCOCC5)cc4)[nH]c4nccc(Cl)c34)cc21 [Example 68, 1-(6-(4-chloro-2-(4-(morpholinomethyl)phenyl)-1H-pyrrolo[2,3-b]pyridin-3-yl)indolin-1-yl)prop-2-en-1-one]
1000 to 100000	≤ 100	100 to 500	100 to 500	100 to 500	>99	≤ 100	≤ 100	C=CC(=O)Nc1cc(-c2c(-c3ccc(C4CCN(C)CC4)cc3)[nH]c3ncc(C(=O)OC(C)C)cc23)cc(F)c1C [Example 179, isopropyl 3-(3-acrylamido-5-fluoro-4-methylphenyl)-2-(4-(1-methylpiperidin-4-yl)phenyl)-1H-pyrrolo[2,3-b]pyridine-5-carboxylate]
1000 to 100000	≤ 100	≤ 100	100 to 500	100 to 500	95	≤ 100	≤ 100	C=CC(=O)Nc1cc(-c2c(-c3ccc(N4CCN(C)CC4)cc3)[nH]c3ncc(C(=O)OCC)cc23)ccc1C [Example 135, ethyl 3-(3-acrylamido-4-methylphenyl)-2-(4-(4-methylpiperazin-1-yl)phenyl)-1H-pyrrolo[2,3-b]pyridine-5-carboxylate]
1000 to 100000	≤ 100	100 to 500	500 to 1000	500 to 1000	79	≤ 100	≤ 100	C=CC(=O)N1CCc2ccc(-c3c(-c4ccc(OCCN5CCCC5)cc4)[nH]c4nccc(OC)c34)cc21 [Example 112, 1-(6-(4-methoxy-2-(4-(2-(pyrrolidin-1-yl)ethoxy)phenyl)-1H-pyrrolo[2,3-b]pyridin-3-yl)indolin-1-yl)prop-2-en-1-one]
1000 to 100000	≤ 100	100 to 500	500 to 1000	100 to 500	>99	≤ 100	≤ 100	C=CC(=O)N1CCc2ccc(-c3c(-c4ccc(C(=O)N5CCN(C)CC5)cc4)[nH]c4nccc(Cl)c34)cc21 [Example 66, 1-(6-(4-chloro-2-(4-(4-methylpiperazine-1-carbonyl)phenyl)-1H-pyrrolo[2,3-b]pyridin-3-yl)indolin-1-yl)prop-2-en-1-one]
100 to 500	≤ 100	≤ 100	≤ 100	100 to 500	>99	≤ 100	≤ 100	C=CC(=O)Nc1cc(-c2c(-c3ccc(N4CCN(C)CC4)cc3)[nH]c3ncc(C#N)cc23)ccc1C [Example 97, N-(5-(5-cyano-2-(4-(4-methylpiperazin-1-yl)phenyl)-1H-pyrrolo[2,3-b]pyridin-3-yl)-2-methylphenyl)acrylamide 2,2,2-trifluoroacetate]
500 to 1000	≤ 100	≤ 100	100 to 500	100 to 500	>99	≤ 100	≤ 100	C=CC(=O)N1CCc2ccc(-c3c(-c4cccc(OCCN5CCCC5)c4)[nH]c4nccc(Cl)c34)cc21 [Example 64, 1-(6-(4-chloro-2-(3-(2-(pyrrolidin-1-yl)ethoxy)phenyl)-1H-pyrrolo[2,3-b]pyridin-3-yl)indolin-1-yl)prop-2-en-1-one]
100 to 500	≤ 100	100 to 500	100 to 500	100 to 500	>99	≤ 100	≤ 100	C=CC(=O)Nc1cc(-c2c(-c3ccc(N4CCN(C)CC4)cc3)[nH]c3ncc(C(=O)NC4CCCCC4)cc23)ccc1C [Example 120, 3-(3-acrylamido-4-methylphenyl)-N-cyclohexyl-2-(4-(4-methylpiperazin-1-yl)phenyl)-1H-pyrrolo[2,3-b]pyridine-5-carboxamide]
500 to 1000	≤ 100	≤ 100	100 to 500	100 to 500	98	≤ 100	≤ 100	C=CC(=O)N1CCc2ccc(-c3c(-c4cccc(CN5CCN(C)CC5)c4)[nH]c4nccc(Cl)c34)cc21 [Example 69, 1-(6-(4-chloro-2-(3-((4-methylpiperazin-1-yl)methyl)phenyl)-1H-pyrrolo[2,3-b]pyridin-3-yl)indolin-1-yl)prop-2-en-1-one]
1000 to 100000	≤ 100	100 to 500	100 to 500	100 to 500	>99	≤ 100	≤ 100	C=CC(=O)Nc1cc(-c2c(-c3ccc(N4CCN(C)CC4)cc3)[nH]c3ncc(C(=O)OC(C)C)cc23)cc(F)c1C [Example 165, isoproyl 3-(3-acrylamido-5-fluoro-4-methylphenyl)-2-(4-(4-methylpiperazin-1-yl)phenyl)-1H-pyrrolo[2,3-b]pyridine-5-carboxylate 2,2,2-trifluoroacetate]
500 to 1000	≤ 100	100 to 500	500 to 1000	100 to 500	>99	≤ 100	≤ 100	C=CC(=O)N1CCc2ccc(-c3c(-c4ccc(N5CCN(C)CC5)nc4)[nH]c4nccc(Cl)c34)cc21 [Example 70, 1-(6-(4-chloro-2-(6-(4-methylpiperazin-1-yl)pyridin-3-yl)-1H-pyrrolo[2,3-b]pyridin-3-yl)indolin-1-yl)prop-2-en-1-one]
100 to 500	≤ 100	≤ 100	≤ 100	≤ 100	96	≤ 100	≤ 100	C=CC(=O)N1CCc2ccc(-c3c(-c4ccc(CN5CCN(C)CC5)cc4)[nH]c4nccc(OC)c34)cc21 [Example 113, 1-(6-(4-methoxy-2-(4-((4-methylpiperazin-1-yl)methyl)phenyl)-1H-pyrrolo[2,3-b]pyridin-3-yl)indolin-1-yl)prop-2-en-1-one]

Compound	IC50 (A431) [nM]	IC50 (EGFR wt) [nM]	IC50 (H1975) [nM]	GI50 [1] [nM]	GI50 [2] [nM]	Stability in presence of mouse liver microsomes without cofactor NADPH [% remaining after 50 min] [3] [% remaining after 50 min]	IC50 (EGFR T790ML858R) [nM]	IC50 (HER2 INS YVMA) [nM]
C=CC(=O)Nc1cc(-c2c(-c3ccc(OCCN(C)C)cc3)[nH]c3ncc(C(=O)OC(C)C)cc23)cc(F)c1C [Example 182, isopropyl 3-(3-acrylamido-5-fluoro-4-methylphenyl)-2-(4-(2-(dimethylamino)ethoxy)phenyl)-1H-pyrrolo[2,3-b]pyridine-5-carboxylate]	1000 to 100000	≤ 100	100 to 500	100 to 500	100 to 500	>99	≤ 100	≤ 100
